In one data set the target is T1, Toll-like receptor 4 (Mus musculus, UniProt Q9QUK6).
T1 sequence (Q9QUK6 whole entry): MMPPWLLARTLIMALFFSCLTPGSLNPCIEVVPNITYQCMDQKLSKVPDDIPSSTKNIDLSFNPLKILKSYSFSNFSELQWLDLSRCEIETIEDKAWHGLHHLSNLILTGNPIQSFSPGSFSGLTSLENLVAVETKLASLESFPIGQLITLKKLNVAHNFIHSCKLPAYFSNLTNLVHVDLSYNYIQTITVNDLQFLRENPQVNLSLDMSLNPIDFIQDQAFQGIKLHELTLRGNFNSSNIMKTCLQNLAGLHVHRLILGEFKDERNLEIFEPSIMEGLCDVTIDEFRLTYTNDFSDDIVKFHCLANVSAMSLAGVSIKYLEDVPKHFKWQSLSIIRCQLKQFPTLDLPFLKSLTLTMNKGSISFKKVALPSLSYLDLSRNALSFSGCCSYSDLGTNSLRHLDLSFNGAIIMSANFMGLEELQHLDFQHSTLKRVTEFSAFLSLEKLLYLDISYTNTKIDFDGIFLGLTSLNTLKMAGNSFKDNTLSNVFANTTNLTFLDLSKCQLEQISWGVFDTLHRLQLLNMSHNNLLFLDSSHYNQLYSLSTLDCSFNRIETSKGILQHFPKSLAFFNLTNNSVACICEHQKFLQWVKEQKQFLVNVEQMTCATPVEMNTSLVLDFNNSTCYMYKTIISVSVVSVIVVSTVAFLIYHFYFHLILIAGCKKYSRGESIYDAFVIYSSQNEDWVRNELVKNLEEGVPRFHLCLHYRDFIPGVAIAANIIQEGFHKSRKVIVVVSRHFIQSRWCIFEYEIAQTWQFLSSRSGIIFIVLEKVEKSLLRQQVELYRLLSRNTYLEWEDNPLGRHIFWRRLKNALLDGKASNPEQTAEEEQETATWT
Nature of the data set: Inhibition of TLR4 in LPS/INFgamma stimulated mouse peritoneal macrophages assessed as inhibition of IL1-beta after 20 hrs by ELISA analysis. Background: ELISA stands for enzyme-linked immunosorbent assay.

Data set [1] can be described thus: Inhibition of organic anion transporter (unknown origin). Further details: species or system Homo sapiens.
The next data set deals with Pannexin-1 (Homo sapiens, UniProt Q96RD7). Briefly: Binding affinity to pannexin 1 channel (unknown origin).
Another data set can be described thus: clinical. Conditions: human, plasma, po, 500 mg.
The subject of another data set is THP-1. Briefly: Inhibition of caspase-1-mediated IL-1beta production in LPS/ATP induced human THP1 cells by ELISA analysis. It counts as functional, cell-based.
Data set [2] is described as follows: Half life in C57BL/6 mouse at 3 mg/kg, iv administered as single dose. It counts as ADME, organism-based. Conditions: in vivo.
Data set [3] can be described thus: Oral bioavailability in single dosed C57BL/6 mouse at 20 mg/kg. Conditions: in vivo. Type of data set: ADME, organism-based.
For a further data set, the target named is T2, Caspase-1 (Homo sapiens, UniProt P29466).
T2 sequence (P29466 whole entry): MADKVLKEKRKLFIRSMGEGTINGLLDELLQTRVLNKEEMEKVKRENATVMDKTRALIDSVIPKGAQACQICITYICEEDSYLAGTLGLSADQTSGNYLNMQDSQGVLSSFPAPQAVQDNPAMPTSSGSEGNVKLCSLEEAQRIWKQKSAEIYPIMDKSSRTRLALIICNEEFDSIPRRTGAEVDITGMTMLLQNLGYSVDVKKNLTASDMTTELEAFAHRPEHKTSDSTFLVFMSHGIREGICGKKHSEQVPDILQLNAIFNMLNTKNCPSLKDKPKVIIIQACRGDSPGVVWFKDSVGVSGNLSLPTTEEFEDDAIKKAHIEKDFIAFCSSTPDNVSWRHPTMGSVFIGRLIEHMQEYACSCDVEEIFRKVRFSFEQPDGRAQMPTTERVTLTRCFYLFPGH
Nature of the data set: Inhibition of caspase-1 in LPS stimulated human PMBC cells after 2 hrs by ELISA analysis. Type of data set: cell-based.

For data set [4], the target named is NACHT, LRR and PYD domains-containing protein 3 (Mus musculus, UniProt Q8R4B8). Nature of the data set: Inhibition of NLRP3 in LPS stimulated mouse BMDM cells after 15 mins followed by addition of ATP by ELISA analysis. Type of data set: cell-based.
NACHT, LRR and PYD domains-containing protein 3, sequence (Q8R4B8 whole entry, the tested form may be a part): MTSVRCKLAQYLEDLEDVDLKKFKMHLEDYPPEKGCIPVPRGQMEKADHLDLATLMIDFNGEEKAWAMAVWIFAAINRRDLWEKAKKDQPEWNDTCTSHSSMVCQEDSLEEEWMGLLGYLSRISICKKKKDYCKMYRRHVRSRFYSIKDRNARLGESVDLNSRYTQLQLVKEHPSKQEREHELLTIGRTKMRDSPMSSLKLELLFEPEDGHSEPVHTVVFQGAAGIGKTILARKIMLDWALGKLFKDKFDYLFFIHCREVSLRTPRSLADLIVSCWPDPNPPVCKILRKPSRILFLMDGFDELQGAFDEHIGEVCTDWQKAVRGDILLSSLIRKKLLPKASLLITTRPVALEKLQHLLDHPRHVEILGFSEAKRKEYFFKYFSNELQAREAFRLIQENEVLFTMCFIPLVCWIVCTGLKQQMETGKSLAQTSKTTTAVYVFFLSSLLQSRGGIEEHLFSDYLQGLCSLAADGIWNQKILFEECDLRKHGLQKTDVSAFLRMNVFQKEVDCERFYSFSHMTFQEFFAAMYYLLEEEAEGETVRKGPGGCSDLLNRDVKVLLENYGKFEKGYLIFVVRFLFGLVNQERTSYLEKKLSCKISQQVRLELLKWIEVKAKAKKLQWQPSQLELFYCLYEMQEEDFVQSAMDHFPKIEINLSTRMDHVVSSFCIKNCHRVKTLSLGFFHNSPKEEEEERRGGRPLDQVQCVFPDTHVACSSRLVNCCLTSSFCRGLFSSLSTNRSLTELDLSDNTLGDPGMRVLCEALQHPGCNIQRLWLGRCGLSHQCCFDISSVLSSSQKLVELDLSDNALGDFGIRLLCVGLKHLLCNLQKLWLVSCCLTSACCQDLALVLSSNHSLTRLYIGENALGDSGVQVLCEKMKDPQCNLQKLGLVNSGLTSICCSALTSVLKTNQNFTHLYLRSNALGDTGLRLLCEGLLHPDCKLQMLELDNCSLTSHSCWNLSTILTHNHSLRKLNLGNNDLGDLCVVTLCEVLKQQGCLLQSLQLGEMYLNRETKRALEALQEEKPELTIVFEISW

Pannexin-1, sequence (Q96RD7 whole entry): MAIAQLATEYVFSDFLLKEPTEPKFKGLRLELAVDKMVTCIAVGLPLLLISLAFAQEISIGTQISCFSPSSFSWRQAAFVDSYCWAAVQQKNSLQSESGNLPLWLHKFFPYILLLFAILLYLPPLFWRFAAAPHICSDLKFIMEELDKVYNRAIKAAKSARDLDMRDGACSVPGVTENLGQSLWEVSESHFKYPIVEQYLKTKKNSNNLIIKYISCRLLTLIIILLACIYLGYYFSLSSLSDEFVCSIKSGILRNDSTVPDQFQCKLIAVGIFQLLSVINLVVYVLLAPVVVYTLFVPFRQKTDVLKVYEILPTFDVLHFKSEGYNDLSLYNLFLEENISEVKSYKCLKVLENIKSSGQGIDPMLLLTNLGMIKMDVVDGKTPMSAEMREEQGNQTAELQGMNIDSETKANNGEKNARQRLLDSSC

The IC50 is the concentration that gives 50% inhibition. As to `CCOC(=O)C1=CCCC[C@H]1S(=O)(=O)Nc1ccc(F)cc1Cl` [RESATORVID], at Toll-like receptor 4, the 50% inhibitory concentration (IC50) amounted to 0.0057 µM.
Broadly, the Cmax is the maximum level reached in the sampled fluid or tissue. Consider `CCCN(CCC)S(=O)(=O)c1ccc(C(=O)O)cc1` [PROBENECID], for which the half-maximal inhibitory concentration (IC50) in data set [1] is below 100 µM; at Pannexin-1 it was 150 µM. The same compound came in with a Cmax at 48 h in “clinical” of 124 µM.
In the data set on THP-1, `O=C1C(Br)=C[C@H](O)[C@H]2O[C@@H]12` displayed an IC50 of 0.17 µM.
For orientation: half-life means the time in which the quantity being followed falls by half. As a reminder, the bioavailability is dose-corrected exposure relative to a reference, in per cent. The low end stands for little systemic uptake, the high end for much systemic uptake. In data set [2], `CC(C)(O)c1coc(S(=O)(=O)NC(=O)Nc2c3c(cc4c2CCC4)CCC3)c1` showed a half-life of 3 h. This compound also returned a bioavailability in [3] of 68%.
Compound `O=C1C(Br)=C[C@@H](O)[C@H]2O[C@@H]12` showed an IC50 with THP-1 of 0.2 µM.
Still for that read-out and setting: the figure for `O=C1C(Br)=C[C@@H](O)[C@@H]2O[C@H]12` is 0.19 µM; for `O=C1C(Br)=C[C@H](O)[C@@H]2O[C@H]12` it is 0.28 µM.
With `CCO[C@@H]1OC(=O)C[C@@H]1NC(=O)[C@@H]1CCCN2C(=O)CC[C@H](NC(=O)c3nccc4ccccc34)C(=O)N12` [PRALNACASAN], at Caspase-1, the IC50 came out at 0.42 µM.
In data set [4], `O=[N+]([O-])/C=C/c1ccc2c(c1)OCO2` registered an IC50 of 2 µM.
In turn, `O=C[C@H](CC(=O)O)NC(=O)[C@@H]1CCCN2C(=O)CC[C@H](NC(=O)c3nccc4ccccc34)C(=O)N12` [VRT-18858] displayed a 50% inhibitory concentration (IC50) against Caspase-1 of 0.67 µM.

Source of the values: ChEMBL document CHEMBL3779837, “Inhibiting the Inflammasome: A Chemical Perspective” (J Med Chem, 2016).
